Measured values: article PMC11813147, “Bioactivity assessment of peptides derived from salted jellyfish (Rhopilema hispidum) byproducts” (PLOS ONE, 2025)

Experiments:
RAW 264.7 [1] = assay: Cytotoxicity assessment (MTT); type: cell-based, Murine; settings: peptide 10 µg/mL, 72 h; for Cell viability, mean±SD: relative to untreated cells, n = 3, SD
Protocol: (§1) Murine macrophage cells (RAW 264.7; ATCC TIB-71™) were cultured in Dulbecco’s Modified Eagle’s Medium (DMEM) that was supplemented with 10% heat-inactivated fetal bovine serum (FBS) and 1% antibiotic solution. Colorectal adenocarcinoma cells (CaCo-2; ATCC HTB 37™) were cultured in Eagle’s Minimum Essential Medium (EMEM), also supplemented with 10% heat-inactivated FBS and 1% antibiotic solution. Both cell types were maintained in a humidified incubator with 5% CO2. The cell culture medium was refreshed every three days.
Cytotoxicity assessment was performed following the method described by Yang et al., with slight modifications. RAW 264.7 was seeded with 1 x 10^5 cells in a 96-well plate with an appropriate cell culture medium. After allowing the cells to attach, the medium was replaced with a fresh cell culture medium containing the peptide samples at a concentration of 10 µg/mL. The treated cells were incubated for an additional 72 h. At the designated time, fresh medium was added, which included 3-(4,5-dimethylthiazol-2-yl)-2,5-diphenyltetrazolium bromide (MTT) at a concentration of 0.5 mg/mL. After 3 h, formazan crystals were observed. The medium was then removed, and the crystals were dissolved in 100% dimethyl sulfoxide (DMSO). A microplate reader (Synergy HTX; Biotek, Multi-Mode Reader, Winooski, VT, USA) was utilized to measure the absorbance at 570 nm (measurement wavelength) and 630 nm (reference wavelength). The percentage of cell viability was calculated relative to untreated cells using the following equation (5):
Cellviability%=ODtreatment–ODblank/ODuntreated–ODblank×100 (5)
Where ODtreatment is the absorbance of the treated sample, ODuntreated is the absorbance of the untreated sample, and ODblank is the absorbance from wells without treated and untreated samples.

RAW 264.7 [2] = assay: Anti-inflammation assay: released NO in LPS-stimulated RAW 264.7 (Griess); type: cell-based, Murine; settings: then 1 µg/mL LPS 24 h; for Released NO: peptide 10 µg/mL 1 h; for Released NO, mean±SD: peptide 10 µg/mL pre-treatment 1 h, Griess reagent, n = 3
Protocol: as §1
The anti-inflammation assay was conducted following the method described by Barzkar et al. with slight modifications. RAW 264.7 (1 x 10^5 cells) was seeded into a 96-well plate to allow for cell attachment. After 24 h, the cells were pre-treated with fresh medium containing peptide samples at a concentration of 10 µg/mL for 1 h. Subsequently, the treated cells were stimulated with 1 µg/mL lipopolysaccharide (LPS) for an additional 24 h. Unstimulated cells were included as a negative control. At the end of the treatment period, the conditioned medium was collected for the determination of released nitric oxide (NO). Griess’s reagent (Promega) was utilized to measure the NO concentration, following the manufacturer’s instructions. A NO calibration curve was generated to quantify the released NO in the conditioned medium.

[3] = ABTS radical scavenging assay; type: biochemical; settings: for ABTS, mean±SD / ABTS: supplement tables
Protocol: The ABTS radical scavenging activity of the sample was measured using a method adapted from Mirzaei et al.. The ABTS radical was generated by mixing 7 mM ABTS with 2.45 mM potassium persulfate in a 1:1 ratio and incubating the mixture in the dark at room temperature for 12 to 16 h. The resulting solution was then diluted to achieve an absorbance of 0.74 ± 0.03 at 734 nm, using deionized water for adjustments. Next, 10 μL of the sample was added to 190 μL of the ABTS solution. The mixture was incubated in the dark for 7 min, after which the absorbance was measured at 734 nm. The ABTS radical scavenging activity (%) was calculated using the following equation (2):
ABTSradicalscavengingactivity%=Acontrol–Asample/Acontrol×100 (2)
In this equation, Acontrol refers to the absorbance of the control solution (which contains all reagents except the test samples), while Asample refers to the absorbance of the mixture containing the sample and the ABTS solution. To determine the Trolox equivalent antioxidant capacity (TEAC), a Trolox standard curve was used, and the results were expressed as millimoles of Trolox equivalents per milligram of protein (mM TE/mg protein).

[4] = Ferric reducing antioxidant power (FRAP) assay; type: biochemical
Protocol: The FRAP assay was conducted following the method outlined by Rumpf et al.. The FRAP solution was prepared by mixing 300 mM acetate buffer (pH 3.6), 10 mM TPTZ (2,4,6-Tris(2-pyridyl)-s-triazine) in 40 mM hydrochloric acid, and 20 mM FeCl3 in a ratio of 10:1:1. In a 96-well plate, 10 μL of the sample was combined with 190 μL of the FRAP solution and incubated in the dark for 15 min. The absorbance of the mixture was then measured at 593 nm. FeSO4 was used to create the standard curve, and the results were expressed as millimoles of FeSO4 equivalent per milligram of protein (mM FeSO4/mg protein).

[5] = 10 µL sample + 190 µL FRAP solution, 15 min dark, 593 nm, FeSO4 standard curve, mean ± SD, n = 3, SD

| Sequence | Cell viability, mean±SD (RAW 264.7 [1]) | Cell viability (RAW 264.7 [1]; replicate 1) | Cell viability (RAW 264.7 [1]; replicate 2) | Cell viability (RAW 264.7 [1]; replicate 3) | Released NO (RAW 264.7 [2]; replicate 1) | Released NO (RAW 264.7 [2]; replicate 2) | Released NO (RAW 264.7 [2]; replicate 3) | Released NO, mean±SD (RAW 264.7 [2]) | ABTS, mean±SD ([3]; mean ± SD, n = 3) | ABTS ([3]; replicate 1) | ABTS ([3]; replicate 2) | ABTS ([3]; replicate 3) | FRAP [4, 5] | FRAP ([4]; supplement tables, replicate 1) | FRAP ([4]; supplement tables, replicate 2) | FRAP ([4]; supplement tables, replicate 3) | ABTS radical scavenging activity (TEAC) ([3]; 10 µL sample + 190 µL ABTS solution, 7 min dark, 734 nm, Trolox standard curve, mean ± SD, n = 3) |
| --- | --- | --- | --- | --- | --- | --- | --- | --- | --- | --- | --- | --- | --- | --- | --- | --- | --- |
| GKNCGETVWE [P9, synthesized peptide identified from jellyfish fraction PUR20C] | 87.34% | 87.34% | 86.26% | 88.40% | 35.86 µM | 36.20 µM | 34.82 µM | 35.63 ± 0.71 µM | 103.21±2.27^F TE/mg protein | 105.08 TE/mg protein | 100.67 TE/mg protein | 103.88 TE/mg protein | 13.03±0.8^C mM FeSO4/mg protein | 13.31 mM FeSO4/mg protein | 13.73 mM FeSO4/mg protein | 12.05 mM FeSO4/mg protein | – |
| PFTMYFLL [P14, synthesized peptide identified from jellyfish fraction PUR20C] | 90.09±2.78^B % | 87.69% | 89.45% | 93.14% | 32.06 µM | 31.03 µM | 34.48 µM | 32.52±1.76^F µM | 119.57±1.33^E TE/mg protein | 118.70 TE/mg protein | 118.90 TE/mg protein | 121.11 TE/mg protein | 9.24±1.05 mM FeSO4/mg protein | 10.36 mM FeSO4/mg protein | 9.10 mM FeSO4/mg protein | 8.26 mM FeSO4/mg protein | – |
| RPLAKIIP [P8, synthesized peptide identified from jellyfish fraction PUR20C] | 83.71% | 84.35% | 85.23% | 81.54% | 37.58 µM | 37.93 µM | 34.82 µM | 36.78 µM | 3.11 TE/mg protein | 2.51 TE/mg protein | 3.31 TE/mg protein | 3.51 TE/mg protein | 9.31 mM FeSO4/mg protein | 9.31 mM FeSO4/mg protein | 9.52 mM FeSO4/mg protein | 9.10 mM FeSO4/mg protein | – |
| EIDKLPPESRP [P7, synthesized peptide identified from jellyfish fraction PUR20C] | 81.60% | 81.72% | 81.89% | 81.19% | 35.51 µM | 37.58 µM | 33.79 µM | 35.63 ± 1.89 µM | 1.64 TE/mg protein | 1.71 TE/mg protein | 1.71 TE/mg protein | 1.50 TE/mg protein | 12.40±1.36^C mM FeSO4/mg protein | 11.00 mM FeSO4/mg protein | 13.73 mM FeSO4/mg protein | 12.47 mM FeSO4/mg protein | – |
| KFNEVVYFL [P15, synthesized peptide identified from jellyfish fraction PUR20C] | 87.22% | 87.87% | 85.58% | 88.22% | 32.75 µM | 32.75 µM | 34.82 µM | 33.44 µM | 131.66±1.15^B TE/mg protein | 132.32 TE/mg protein | 130.32 TE/mg protein | 132.32 TE/mg protein | 4.61±0.73^H mM FeSO4/mg protein | 3.84 mM FeSO4/mg protein | 4.68 mM FeSO4/mg protein | 5.31 mM FeSO4/mg protein | – |
| TDSPAPSETTD [P2, synthesized peptide identified from jellyfish fraction PUR20C] | 85.70% | 83.12% | 86.46% | 87.52% | 38.27 µM | 37.24 µM | 37.58 µM | 37.70 µM | 2.91 TE/mg protein | 3.11 TE/mg protein | 2.71 TE/mg protein | 2.91 TE/mg protein | 7.63 mM FeSO4/mg protein | 7.21 mM FeSO4/mg protein | 7.63 mM FeSO4/mg protein | 8.05 mM FeSO4/mg protein | – |
| RARVVPMY [P6, synthesized peptide identified from jellyfish fraction PUR20C] | 85.47% | 92.97% | 82.77% | 80.66% | 34.82 µM | 35.51 µM | 39.65 µM | 36.66 ± 2.61 µM | 139.87±0.50^A TE/mg protein | 139.34 TE/mg protein | 139.94 TE/mg protein | 140.34 TE/mg protein | 10.78±0.63^D mM FeSO4/mg protein | 10.15 mM FeSO4/mg protein | 11.42 mM FeSO4/mg protein | 10.78 mM FeSO4/mg protein | highest activity |
| HSVLTASYRN [P5, synthesized peptide identified from jellyfish fraction PUR20C] | 87.58% | 92.44% | 89.27% | 81.01% | 34.13 µM | 33.44 µM | 36.20 µM | 34.59 ± 1.43 µM | 123.24±0.75^C TE/mg protein | 124.11 TE/mg protein | 122.71 TE/mg protein | 122.91 TE/mg protein | 8.19 mM FeSO4/mg protein | 7.63 mM FeSO4/mg protein | 9.52 mM FeSO4/mg protein | 7.42 mM FeSO4/mg protein | – |
